Experimental findings from US11242350B2, “Spirocyclic ROR-gamma modulators” (Escalier Biosciences B.V., priority 2018, dated 2022) are described below.

Each structure is given as a SMILES string. pIC50: −log10 of the molar value. Some results are limits rather than exact numbers.

Chain of RORγt (P51449 269-508): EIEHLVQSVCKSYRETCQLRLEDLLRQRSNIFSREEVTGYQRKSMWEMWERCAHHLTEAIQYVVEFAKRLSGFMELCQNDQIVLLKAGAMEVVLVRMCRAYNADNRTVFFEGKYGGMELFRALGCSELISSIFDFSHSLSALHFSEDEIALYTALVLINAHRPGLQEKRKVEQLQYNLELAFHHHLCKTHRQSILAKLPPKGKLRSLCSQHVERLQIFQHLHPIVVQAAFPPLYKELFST

The experiment concerns the target RORγt (Homo sapiens (Human), UniProt P51449). As to the kind of experiment: Gal4 ligand binding assay (RORγt Gal fusion luciferase reporter assay in HEK293T cells). It counts as cell-based. Conditions: RORγt inverse agonists in RORγt Gal fusion assay. In a few lines:
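Stable HEK293T line expressing the receptor fused to the Gal4 DBD, with a Gal4 UAS-driven luciferase; constitutively active, so agonism and inverse agonism both register. 10-point 1:3 titrations, 60 μM to 3 nM as prepared in media (added as 2×), 0.2% final DMSO; 24 h at 37 °C. Luminescence normalised to vehicle-only wells.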
A general note: In a reporter assay the amount or activity of a reporter protein is the signal.
In the case of `CCc1cc(C(O)(C(F)(F)F)C(F)(F)F)ccc1-c1c(F)cc(CN2CC3(C2)CN(S(C)(=O)=O)C3)c(F)c1CC` [Example 71, 2-(2,2′-diethyl-3′,6′-difluoro-4′-((6-(methylsulfonyl)-2,6-diazaspiro[3.3]heptan-2-yl)methyl)-[1,1′-biphenyl]-4-yl)-1,1,1,3,3,3-hexafluoropropan-2-ol], the pIC50 – broadly, the IC50 on a negative log10 scale, so that one unit is a factor of ten – is above 7.30.
In the case of `CCc1cc(CN2CC3(CCCN(S(C)(=O)=O)C3)C2)ccc1-c1ccc(C(O)(C(F)(F)F)C(F)(F)F)cc1` [Example 19, 2-(2′-ethyl-4′-((6-(methylsulfonyl)-2,6-diazaspiro[3.5]nonan-2-yl)methyl)-[1,1′-biphenyl]-4-yl)-1,1,1,3,3,3-hexafluoropropan-2-ol] it was 6.60 to 7.30.
To `CCc1cc(CN2CCC3(CCN(S(C)(=O)=O)C3)C2)ccc1-c1ccc(C(O)(C(F)(F)F)C(F)(F)F)cc1` (stereo not shown) [Example 31, 2-(2′-ethyl-4′-((7-(methylsulfonyl)-2,7-diazaspiro[4.4]nonan-2-yl)methyl)-[1,1′-biphenyl]-4-yl)-1,1,1,3,3,3-hexafluoropropan-2-ol] belongs above 7.30; to `CCc1cc(CN2CC3(CCS(=O)(=O)C3)C2)ccc1-c1ccc(C(O)(C(F)(F)F)C(F)(F)F)cc1` [Example 24, 2-((2-ethyl-4′-(1,1,1,3,3,3-hexafluoro-2-hydroxypropan-2-yl)-[1,1′-biphenyl]-4-yl)methyl)-6-thia-2-azaspiro[3.4]octane 6,6-dioxide], 6.60 to 7.30; to `CCc1cc(CN2CC3(C2)CS(=O)(=O)C3)ccc1-c1ccc(C(O)(C(F)(F)F)C(F)(F)F)cc1C` [Example 18, 6-((2-ethyl-4′-(1,1,1,3,3,3-hexafluoro-2-hydroxypropan-2-yl)-2′-methyl-[1,1′-biphenyl]-4-yl)methyl)-2-thia-6-azaspiro[3.3]heptane 2,2-dioxide], above 7.30.
To `CCc1cc(CN2CC3(C2)CN(S(C)(=O)=O)C3)ccc1-c1ccc(C(O)(C(F)(F)F)C(F)(F)F)cc1F` [Example 34, 2-(2′-ethyl-2-fluoro-4′-((6-(methylsulfonyl)-2,6-diazaspiro[3.3]heptan-2-yl)methyl)-[1,1′-biphenyl]-4-yl)-1,1,1,3,3,3-hexafluoropropan-2-ol] belongs above 7.30.
On to `CC(C)c1cc(CN2CC3(C2)CN(S(C)(=O)=O)C3)c(F)c(F)c1-c1ccc(C(O)(C(F)(F)F)C(F)(F)F)cc1` [Example 14, 2-(2′,3′-difluoro-6′-isopropyl-4′-((6-(methylsulfonyl)-2,6-diazaspiro[3.3]heptan-2-yl)methyl)-[1,1′-biphenyl]-4-yl)-1,1,1,3,3,3-hexafluoropropan-2-ol], for which the pIC50 was above 7.30.
To `CCc1cc(C(O)(C(F)(F)F)C(F)(F)F)ccc1-c1ccc(CN2CC3(C2)CN(S(C)(=O)=O)C3)cc1C` [Example 76, 2-(2-ethyl-2′-methyl-4′-((6-(methylsulfonyl)-2,6-diazaspiro[3.3]heptan-2-yl)methyl)-[1,1′-biphenyl]-4-yl)-1,1,1,3,3,3-hexafluoropropan-2-ol] belongs above 7.30; to `CCc1cc(CN2CC3(C2)CN(S(C)(=O)=O)C3)ccc1-c1ccc(C(O)(C(F)(F)F)C(F)(F)F)cc1C` [Example 39, 2-(2′-ethyl-2-methyl-4′-((6-(methylsulfonyl)-2,6-diazaspiro[3.3]heptan-2-yl)methyl)-[1,1′-biphenyl]-4-yl)-1,1,1,3,3,3-hexafluoropropan-2-ol], above 7.30.
In the case of `CC(=O)N1CC2(CN(Cc3ccc(-c4ccc(C(O)(C(F)(F)F)C(F)(F)F)cc4)c(C)c3)C2)C1` [Example 49, 1-(6-((4′-(1,1,1,3,3,3-hexafluoro-2-hydroxypropan-2-yl)-2-methyl-[1,1′-biphenyl]-4-yl)methyl)-2,6-diazaspiro[3.3]heptan-2-yl)ethan-1-one], the pIC50 was below 6.60.
To `CCc1cc(CN2CCC3(C2)CS(=O)(=O)C3)ccc1-c1ccc(C(O)(C(F)(F)F)C(F)(F)F)cc1C` [Example 16, 6-((2-ethyl-4′-(1,1,1,3,3,3-hexafluoro-2-hydroxypropan-2-yl)-2′-methyl-[1,1′-biphenyl]-4-yl)methyl)-2-thia-6-azaspiro[3.4]octane 2,2-dioxide] belongs above 7.30.
`CC(C)c1cc(CN2CC3(C2)CN(S(C)(=O)=O)C3)ccc1-c1ccc(C(O)(C(F)(F)F)C(F)(F)F)cc1` [Example 43, 1,1,1,3,3,3-hexafluoro-2-(2′-isopropyl-4′-((6-(methylsulfonyl)-2,6-diazaspiro[3.3]heptan-2-yl)methyl)-[1,1′-biphenyl]-4-yl)propan-2-ol] had a pIC50 above 7.30.
`CCc1cc(CN2CC(CNS(C)(=O)=O)C2)ccc1-c1ccc(C(O)(C(F)(F)F)C(F)(F)F)cc1` [Example 32, N-((1-((2-ethyl-4′-(1,1,1,3,3,3-hexafluoro-2-hydroxypropan-2-yl)-[1,1′-biphenyl]-4-yl)methyl)azetidin-3-yl)methyl)methanesulfonamide] had a negative-log IC50 (pIC50) below 6.60.
As for `CCc1cc(CN2CCC3(C2)CN(S(C)(=O)=O)C3)ccc1-c1ccc(C(O)(C(F)(F)F)C(F)(F)F)cc1` [Example 30, 2-(2′-ethyl-4′-((2-(methylsulfonyl)-2,6-diazaspiro[3.4]octan-6-yl)methyl)-[1,1′-biphenyl]-4-yl)-1,1,1,3,3,3-hexafluoropropan-2-ol], the pIC50 was above 7.30.
In the case of `CC(C)c1cc(CN2CC3(C2)CN(S(C)(=O)=O)C3)cc(F)c1-c1ccc(C(O)(C(F)(F)F)C(F)(F)F)cc1` [Example 15, 1,1,1,3,3,3-hexafluoro-2-(2′-fluoro-6′-isopropyl-4′-((6-(methylsulfonyl)-2,6-diazaspiro[3.3]heptan-2-yl)methyl)-[1,1′-biphenyl]-4-yl)propan-2-ol] it was above 7.30.
In the case of `CCc1cc(CN2CC3(CCS(=O)(=O)CC3)C2)ccc1-c1ccc(C(O)(C(F)(F)F)C(F)(F)F)cc1` [Example 3, 2-((2-ethyl-4′-(1,1,1,3,3,3-hexafluoro-2-hydroxypropan-2-yl)-[1,1′-biphenyl]-4-yl)methyl)-7-thia-2-azaspiro[3.5]nonane 7,7-dioxide] it was above 7.30.
`CCc1cc(CN2CCC3(CCS(=O)(=O)C3)C2)ccc1-c1ccc(C(O)(C(F)(F)F)C(F)(F)F)cc1` (stereo not shown) [Example 58, 7-((2-ethyl-4′-(1,1,1,3,3,3-hexafluoro-2-hydroxypropan-2-yl)-[1,1′-biphenyl]-4-yl)methyl)-2-thia-7-azaspiro[4.4]nonane 2,2-dioxide] showed a pIC50 above 7.30.
Turning to `CCc1cc(CN2CC3(C2)CN(C(=O)OC(C)(C)C)C3)ccc1-c1ccc(C(O)(C(F)(F)F)C(F)(F)F)cc1` [Example 1, tert-butyl 6-((2-ethyl-4′-(1,1,1,3,3,3-hexafluoro-2-hydroxypropan-2-yl)-[1,1′-biphenyl]-4-yl)methyl)-2,6-diazaspiro[3.3]heptane-2-carboxylate], the pIC50 is 6.60 to 7.30.
To `CC(C)c1c(F)c(CN2CC3(C2)CN(S(C)(=O)=O)C3)cc(F)c1-c1ccc(C(O)(C(F)(F)F)C(F)(F)F)cc1Cl` [Example 87, 2-(2-chloro-3′,6′-difluoro-2′-isopropyl-4′-((6-(methylsulfonyl)-2,6-diazaspiro[3.3]heptan-2-yl)methyl)-[1,1′-biphenyl]-4-yl)-1,1,1,3,3,3-hexafluoropropan-2-ol] belongs above 7.30.
